Results on two compounds are retold here after patent publication US4960698A, “Process for producing L-654,040, antibacterial agent” (Merck & Co., Inc., priority 1989, dated 1990).

For one series, the system named is Eubcterium limosum 3344. The series can be described thus: agar dilution MIC, anaerobic, Wilkens-Chalgren agar. The series is classed as cell-based. The conditions noted are these: 10^6 cfu/spot, 35° C., 48 hours. The protocol:
(a) Wilkens-Chalgren agar was used instead of antagonist-free medium (Roche);
(b) The inoculum/spot was about 10^6 instead of about 10^4 ;
(c) The incubation period was for 48 hours, not 24 hours; and
(d) Incubations were performed under anaerobic conditions.
*Agar dilution assay, multipoint inoculator, WilkensChalgren agar,
inoculum 10^6 cfu/spot, incubation at 35° C. for 48 hours.

A further series relates to numerous microorganisms. The series can be described thus: in vitro antibacterial potency (general statement). The series is classed as cell-based.
For series [1] the following is noted: mouse, in vivo.
The next series is described as follows: solubility in water. The note with it: water solutions for injection.
Series [2] deals with Pasteurella multocida (4678). The series can be described thus: protection and survival of infected mice. The conditions noted are these: intraperitoneal; for survival time: 160 mg/kg ×2.
Series [3] deals with Bordetella bronchiseptica (3771). The series can be described thus: protection and survival of infected mice. The conditions noted are these: intraperitoneal, 160 mg/kg ×2.
The test system of the next series is Staph. aureus 2865. Nature of the series: agar dilution MIC, antagonist-free medium (Roche). The note with it: Table II.
In another series the test system is E. coli DC2 4353. The series can be described thus: agar dilution MIC, antagonist-free medium (Roche). The conditions noted are these: E. coli permeability mutant, Table II.
A further series has as its system Pasteurella multocida. The series can be described thus: combined therapy with erythromycin in infected mice. The note with it: intraperitoneal, vs erythromycin alone.

Converted amounts (≈) assume the structure as drawn. “Also recorded” adds a separate entry of the source.

In the series with Eubcterium limosum 3344, `CO[C@@]1(NC(=O)Cc2cccs2)C(=O)N2C(C(=O)O)=C(COC(N)=O)CS[C@@H]21` [CEFOXITIN, Cefoxitin, reference compound] gave an MIC of 1 mg/L (≈ 2.34 µM).

Compound `C[C@H](CNC(=O)[C@H]1N=C(c2cccc(O)c2O)O[C@@H]1C)C(=O)N[C@@H]1CCCN(O)C1=O` [L-654,040] came in with an MIC in the series on Eubcterium limosum 3344 of 128 mg/L (≈ 295 µM). Further, the potency in vitro result in the series with numerous microorganisms is “showing potency in vitro against numerous microorganisms”. Besides, the “tolerability in uninfected mice” value in series [1] was “tolerated by uninfected mice”. The “solubility in water (in words)” value in “solubility in water” is on record as “limited solubility”. In [2], the “statistical significance of prolonged survival (in words)” value is recorded as “statistically significant at one level in two Pasteurella tests”. In addition, the survival time entry in series [2] (160 mg/kg) was “prolongation of survival time was observed; also recorded: increases survival time”; in [2] (listed as L-654.040, 160 mg/kg), “did prolong the survival time”; in series [3] (160 mg/kg), “prolongation of survival time was observed”; in [3] (listed as L-654.040, 160 mg/kg) it was “did prolong the survival time”. Also, the sensitivity of strain result in the series with Staph. aureus 2865 and in the series on E. coli DC2 4353 was “sensitive” each time. For the same compound, the “efficacy of combined therapy with erythromycin” value with Pasteurella multocida is recorded as “slightly more effective than erythromycin alone but not to a degree considered to be synergistic”.
